From patent US8278345B2, “Inhibitors of glutaminyl cyclase” (Probiodrug AG, priority 2006, dated 2012)

What follows are compounds tested against hQC (Homo sapiens, UniProt Q16769) (assay: Inhibitor assay for glutaminyl cyclase activity (fluorometric, H-Gln-βNA / H-Gln-AMC)). Details: compound from preparative synthesis, purified; read-out: IC50 hQC.
hQC, sequence (Q16769 29-361): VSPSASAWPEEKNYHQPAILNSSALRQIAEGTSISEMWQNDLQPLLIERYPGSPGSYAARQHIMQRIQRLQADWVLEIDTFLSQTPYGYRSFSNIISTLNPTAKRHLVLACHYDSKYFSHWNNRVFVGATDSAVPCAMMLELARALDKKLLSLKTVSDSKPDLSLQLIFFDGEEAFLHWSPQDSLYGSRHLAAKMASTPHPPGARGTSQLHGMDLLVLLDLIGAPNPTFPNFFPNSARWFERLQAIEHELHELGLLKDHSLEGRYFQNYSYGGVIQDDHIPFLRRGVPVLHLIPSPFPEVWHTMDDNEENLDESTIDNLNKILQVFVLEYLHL
Assay type: biochemical
Method in brief: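 Coupled fluorometric assay at 30 °C with pyroglutamyl aminopeptidase, in Tris/HCl pH 8.0 with EDTA, substrate H-Gln-βNA (0.2 mM; ex/em 320/410 nm) or H-Gln-AMC (ex/em 380/460 nm), initiated by QC. Screening: 4 mM inhibitor, substrate at 1 KM; Ki from progress curves fitted to competitive inhibition.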
With `O=C1C(O)=C(c2c[nH]c3ccccc23)C(C2CCC=CO2)N1CCCn1ccnc1` (stereo not drawn) [Compound 128, 5-(3,4-Dihydro-2H-pyran-2-yl)-3-hydroxy-1-(3-imidazol-1-yl-propyl)-4-(1H-indol-3-yl)-1,5-dihydro-pyrrol-2-one] the IC50 was 804 nM. `CCCCC1C(c2ccccc2)=C(O)C(=O)N1CCCn1ccnc1` (stereo not drawn) [Compound 107, 5-Butyl-3-hydroxy-1-(3-imidazol-1-yl-propyl)-4-phenyl-1,5-dihydro-pyrrol-2-one] gave an IC50 of 524 nM. In the case of `CSCC1=C(O)C(=O)N(c2ccc3[nH]cnc3c2)C1c1cc(Cl)ccc1O` (stereo not drawn) [Compound 336, 1-(1H-Benzoimidazol-5-yl)-5-(5-chloro-2-hydroxy-phenyl)-3-hydroxy-4-methylsulfanylmethyl-1,5-dihydro-pyrrol-2-one], the IC50 is reported as 156 nM.

Same assay, conditions: read-out: IC50
`CCC1=C(O)C(=O)N(CCCn2ccnc2)C1c1ccco1` (stereo not drawn) [Compound 247, 4-Ethyl-5-furan-2-yl-3-hydroxy-1-(3-imidazol-1-yl-propyl)-1,5-dihydro-pyrrol-2-one] showed an IC50 of 1300 nM. With `CC(C)/C=C/C1C(c2c[nH]c3ccccc23)=C(O)C(=O)N1CCCn1ccnc1` (stereo not drawn) [Compound 118, 3-Hydroxy-1-(3-imidazol-1-yl-propyl)-4-(1H-indol-3-yl)-5-(3-methyl-but-1-enyl)-1,5-dihydro-pyrrol-2-one] the IC50 was 1300 nM. `O=C1C(O)=C(c2c[nH]c3ccccc23)C(c2ccc3nonc3c2)N1c1ccc2[nH]cnc2c1` (stereo not drawn) [Compound 390, 1-(1H-Benzoimidazol-5-yl)-5-(benzo[c][1,2,5]oxadiazol-5-yl)-3-hydroxy-4-(1H-indol-3-yl)-1,5-dihydro-pyrrol-2-one] gave an IC50 of 40 nM. Compound `O=C1C(O)=C(c2ccccc2)C(C2CC2)N1CCCn1ccnc1` (stereo not drawn) [Compound 105, 5-Cyclopropyl-3-hydroxy-1-(3-imidazol-1-yl-propyl)-4-phenyl-1,5-dihydro-pyrrol-2-one] has an IC50 of 400 nM. With `CCCC(=O)C1=C(O)C(=O)N(c2ccc3[nH]cnc3c2)C1` [Compound 362, 1-(1H-Benzoimidazol-5-yl)-4-butyryl-3-hydroxy-1,5-dihydro-pyrrol-2-one] the IC50 was 4720 nM. Compound `O=C1C(O)=C(c2ccc(O)cc2)C(c2ccco2)N1CCCn1ccnc1` (stereo not drawn) [Compound 176, 5-Furan-2-yl-3-hydroxy-4-(4-hydroxy-phenyl)-1-(3-imidazol-1-yl-propyl)-1,5-dihydro-pyrrol-2-one] has an IC50 of 40 nM. In the case of `CC1=C(O)C(=O)N(c2ccc3[nH]cnc3c2)C1c1csc2ccccc12` (stereo not drawn) [Compound 347, 5-Benzo[b]thiophen-3-yl-1-(1H-benzoimidazol-5-yl)-3-hydroxy-4-methyl-1,5-dihydro-pyrrol-2-one], the IC50 is reported as 3100 nM. Compound `CCCCCC(=O)C1=C(O)C(=O)N(c2ccc3[nH]cnc3c2)C1c1cccc(C)c1` (stereo not drawn) [Compound 411, 1-(1H-Benzoimidazol-5-yl)-4-hexanoyl-3-hydroxy-5-m-tolyl-1,5-dihydro-pyrrol-2-one] has an IC50 of 1390 nM. For `CC(C)C1=C(O)C(=O)N(c2ccc3[nH]cnc3c2)C1c1cc(F)cc(F)c1F` (stereo not drawn) [Compound 253, 1-(1H-Benzoimidazol-5-yl)-3-hydroxy-4-isopropyl-5-(2,3,5-trifluoro-phenyl)-1,5-dihydro-pyrrol-2-one], the IC50 was 1300 nM. `CC1=C(O)C(=O)N(c2ccc3[nH]cnc3c2)C1c1c(F)ccc(Cl)c1F` (stereo not drawn) [Compound 412, 1-(1H-Benzoimidazol-5-yl)-5-(3-chloro-2,6-difluoro-phenyl)-3-hydroxy-4-methyl-1,5-dihydro-pyrrol-2-one] gave an IC50 of 4180 nM. `O=C1C(O)=C(c2cccc(O)c2)C(c2ccc(CO)o2)N1CCCn1ccnc1` (stereo not drawn) [Compound 17, 3-Hydroxy-5-(5-hydroxymethyl-furan-2-yl)-4-(3-hydroxy-phenyl)-1-(3-imidazol-1-yl-propyl)-1,5-dihydro-pyrrol-2-one] gave an IC50 of 5800 nM. In the case of `O=C(C1=C(O)C(=O)N(c2ccc3[nH]cnc3c2)C1c1ccc(CO)o1)c1cccs1` (stereo not drawn) [Compound 369, 1-(1H-Benzoimidazol-5-yl)-3-hydroxy-5-(5-hydroxymethyl-furan-2-yl)-4-(thiophene-2-carbonyl)-1,5-dihydro-pyrrol-2-one], the IC50 is reported as 1570 nM. `CC(C)CC(=O)C1=C(O)C(=O)N(c2ccc3[nH]cnc3c2)C1c1ccco1` (stereo not drawn) [Compound 413, 1-(1H-Benzoimidazol-5-yl)-5-furan-2-yl-3-hydroxy-4-(3-methyl-butyryl)-1,5-dihydro-pyrrol-2-one] was tested, and the IC50 was 1480 nM. Compound `O=C(O)c1ccc(C2C(c3c[nH]c4ccccc34)=C(O)C(=O)N2c2ccc3[nH]cnc3c2)o1` (stereo not drawn) [Compound 451, 5-[1-(1H-Benzoimidazol-5-yl)-4-hydroxy-3-(1H-indol-3-yl)-5-oxo-2,5-dihydro-1H-pyrrol-2-yl]-furan-2-carboxylic acid] has an IC50 of 2560 nM. `CCC1=C(O)C(=O)N(CCCn2ccnc2)C1c1ccccn1` (stereo not drawn) [Compound 243, 4-Ethyl-3-hydroxy-1-(3-imidazol-1-yl-propyl)-5-pyridin-2-yl-1,5-dihydro-pyrrol-2-one] showed an IC50 of 400 nM. Compound `Cc1ccc(C2C(C(=O)c3ccc(Cl)cc3)=C(O)C(=O)N2c2ccc3[nH]cnc3c2)o1` (stereo not drawn) [Compound 459, 1-(1H-Benzoimidazol-5-yl)-4-(4-chloro-benzoyl)-3-hydroxy-5-(5-methyl-furan-2-yl)-1,5-dihydro-pyrrol-2-one] has an IC50 of 2110 nM. With `CCC1=C(O)C(=O)N(CCCn2ccnc2)C1c1ccc(C)o1` (stereo not drawn) [Compound 227, 4-Ethyl-3-hydroxy-1-(3-imidazol-1-yl-propyl)-5-(5-methyl-furan-2-yl)-1,5-dihydro-pyrrol-2-one] the IC50 was 2200 nM. With `Cc1cccc(C2C(c3c[nH]c4ccccc34)=C(O)C(=O)N2c2ccc3[nH]cnc3c2)n1` (stereo not drawn) [Compound 385, 1-(1H-Benzoimidazol-5-yl)-3-hydroxy-4-(1H-indol-3-yl)-5-(6-methyl-pyridin-2-yl)-1,5-dihydro-pyrrol-2-one] the IC50 was 760 nM. Work on `CCCC(=O)C1=C(O)C(=O)N(c2ccc3[nH]cnc3c2)C1c1cc[nH]n1` (stereo not drawn) [Compound 378, 1-(1H-Benzoimidazol-5-yl)-4-butyryl-3-hydroxy-5-(1H-pyrazol-3-yl)-1,5-dihydro-pyrrol-2-one] yielded an IC50 of 4000 nM. Compound `O=C1C(O)=C(c2ccccc2)C(c2ccc(Cl)c(Cl)c2)N1c1ccc2[nH]cnc2c1` (stereo not drawn) [Compound 264, 1-(1H-Benzoimidazol-5-yl)-5-(3,4-dichloro-phenyl)-3-hydroxy-4-phenyl-1,5-dihydro-pyrrol-2-one] has an IC50 of 1570 nM. `CCCC(=O)C1=C(O)C(=O)N(c2ccc3[nH]cnc3c2)C1c1c[nH]c2ccccc12` (stereo not drawn) [Compound 268, 1-(1H-Benzoimidazol-5-yl)-4-butyryl-3-hydroxy-5-(1H-indol-3-yl)-1,5-dihydro-pyrrol-2-one] showed an IC50 of 8590 nM. For `O=C1C(O)=C(c2c[nH]c3ccccc23)C(C2CCC=CO2)N1CCCn1ccnc1` (stereo not drawn) [Compound 128, 5-(3,4-Dihydro-2H-pyran-2-yl)-3-hydroxy-1-(3-imidazol-1-yl-propyl)-4-(1H-indol-3-yl)-1,5-dihydro-pyrrol-2-one], the IC50 was 40 nM. `O=C1C(O)=C(F)C(c2ccccc2F)N1c1ccc2[nH]cnc2c1` (stereo not drawn) [Compound 462, 1-(1H-Benzoimidazol-5-yl)-4-fluoro-5-(2-fluoro-phenyl)-3-hydroxy-1,5-dihydro-pyrrol-2-one] showed an IC50 of 4990 nM. Work on `Cc1ccc(C2C(C(=O)c3cccs3)=C(O)C(=O)N2c2ccc3[nH]cnc3c2)o1` (stereo not drawn) [Compound 321, 1-(1H-Benzoimidazol-5-yl)-3-hydroxy-5-(5-methyl-furan-2-yl)-4-(thiophene-2-carbonyl)-1,5-dihydro-pyrrol-2-one] yielded an IC50 of 760 nM. With `CCCCC1C(c2ccccc2)=C(O)C(=O)N1CCCn1ccnc1` (stereo not drawn) [Compound 107, 5-Butyl-3-hydroxy-1-(3-imidazol-1-yl-propyl)-4-phenyl-1,5-dihydro-pyrrol-2-one] the IC50 was 40 nM. For `O=C(C1=C(O)C(=O)N(c2ccc3[nH]cnc3c2)C1C1CCOC1)C1CC1` (stereo not drawn) [Compound 317, 1-(1H-Benzoimidazol-5-yl)-4-cyclopropanecarbonyl-3-hydroxy-5-(tetrahydro-furan-3-yl)-1,5-dihydro-pyrrol-2-one], the IC50 was 7690 nM. For `CSCC1=C(O)C(=O)N(c2ccc3[nH]cnc3c2)C1c1cc(Cl)ccc1O` (stereo not drawn) [Compound 336, 1-(1H-Benzoimidazol-5-yl)-5-(5-chloro-2-hydroxy-phenyl)-3-hydroxy-4-methylsulfanylmethyl-1,5-dihydro-pyrrol-2-one], the IC50 was 310 nM. For `CC(C)C1=C(O)C(=O)N(CCCn2ccnc2)C1c1ccco1` (stereo not drawn) [Compound 72, 5-Furan-2-yl-3-hydroxy-1-(3-imidazol-1-yl-propyl)-4-isopropyl-1,5-dihydro-pyrrol-2-one], the IC50 was 2200 nM. With `O=C(O)CC1=C(O)C(=O)N(c2ccc3[nH]cnc3c2)C1c1cc(Br)ccc1F` (stereo not drawn) [Compound 338, [1-(1H-Benzoimidazol-5-yl)-2-(5-bromo-2-fluoro-phenyl)-4-hydroxy-5-oxo-2,5-dihydro-1H-pyrrol-3-yl]-acetic acid] the IC50 was 2200 nM. Work on `CCC1=C(O)C(=O)N(c2ccc3[nH]cnc3c2)C1c1cc(F)cc(F)c1F` (stereo not drawn) [Compound 315, 1-(1H-Benzoimidazol-5-yl)-4-ethyl-3-hydroxy-5-(2,3,5-trifluoro-phenyl)-1,5-dihydro-pyrrol-2-one] yielded an IC50 of 1480 nM. `CCC1=C(O)C(=O)N(c2ccc3[nH]cnc3c2)C1c1ccnc2ccccc12` (stereo not drawn) [Compound 302, 1-(1H-Benzoimidazol-5-yl)-4-ethyl-3-hydroxy-5-quinolin-4-yl-1,5-dihydro-pyrrol-2-one] gave an IC50 of 2920 nM. For `CC1=C(O)C(=O)N(c2ccc3[nH]cnc3c2)C1c1cc(C)ccc1C` (stereo not drawn) [Compound 417, 1-(1H-Benzoimidazol-5-yl)-5-(2,5-dimethyl-phenyl)-3-hydroxy-4-methyl-1,5-dihydro-pyrrol-2-one], the IC50 was 9130 nM. `CCC(C)C1C(c2ccccc2)=C(O)C(=O)N1CCCn1ccnc1` (stereo not drawn) [Compound 79, 5-sec-Butyl-3-hydroxy-1-(3-imidazol-1-yl-propyl)-4-phenyl-1,5-dihydro-pyrrol-2-one] was tested, and the IC50 was 400 nM. With `CCC1=C(O)C(=O)N(CCCn2ccnc2)C1Cc1ccccc1` (stereo not drawn) [Compound 242, 5-Benzyl-4-ethyl-3-hydroxy-1-(3-imidazol-1-yl-propyl)-1,5-dihydro-pyrrol-2-one] the IC50 was 2200 nM. With `CC1=C(O)C(=O)N(CCCn2ccnc2)C1C(F)(F)F` (stereo not drawn) [Compound 38, 3-Hydroxy-1-(3-imidazol-1-yl-propyl)-4-methyl-5-trifluoromethyl-1,5-dihydro-pyrrol-2-one] the IC50 was 2200 nM. `CC(C)(C)C(=O)C1=C(O)C(=O)N(c2ccc3[nH]cnc3c2)C1c1ccc(-c2ccccn2)cc1` (stereo not drawn) [Compound 401, 1-(1H-Benzoimidazol-5-yl)-4-(2,2-dimethyl-propionyl)-3-hydroxy-5-(4-pyridin-2-yl-phenyl)-1,5-dihydro-pyrrol-2-one] gave an IC50 of 3010 nM.
